From patent publication US10435399B2, “HDAC6 inhibitory heterocyclic compound” (TAKEDA PHARMACEUTICAL COMPANY LIMITED, priority 2017, dated 2019) come the findings set out here.

The target in the test is T1, HDAC6 enzyme (Homo sapiens, UniProt Q9UBN7).
T1 construct: transducing full length HDAC6 gene into Sf-9 insect cells; GST; purchased SignalChem; host or cells: Sf-9 insect cells
T1 sequence (Q9UBN7 1-1215): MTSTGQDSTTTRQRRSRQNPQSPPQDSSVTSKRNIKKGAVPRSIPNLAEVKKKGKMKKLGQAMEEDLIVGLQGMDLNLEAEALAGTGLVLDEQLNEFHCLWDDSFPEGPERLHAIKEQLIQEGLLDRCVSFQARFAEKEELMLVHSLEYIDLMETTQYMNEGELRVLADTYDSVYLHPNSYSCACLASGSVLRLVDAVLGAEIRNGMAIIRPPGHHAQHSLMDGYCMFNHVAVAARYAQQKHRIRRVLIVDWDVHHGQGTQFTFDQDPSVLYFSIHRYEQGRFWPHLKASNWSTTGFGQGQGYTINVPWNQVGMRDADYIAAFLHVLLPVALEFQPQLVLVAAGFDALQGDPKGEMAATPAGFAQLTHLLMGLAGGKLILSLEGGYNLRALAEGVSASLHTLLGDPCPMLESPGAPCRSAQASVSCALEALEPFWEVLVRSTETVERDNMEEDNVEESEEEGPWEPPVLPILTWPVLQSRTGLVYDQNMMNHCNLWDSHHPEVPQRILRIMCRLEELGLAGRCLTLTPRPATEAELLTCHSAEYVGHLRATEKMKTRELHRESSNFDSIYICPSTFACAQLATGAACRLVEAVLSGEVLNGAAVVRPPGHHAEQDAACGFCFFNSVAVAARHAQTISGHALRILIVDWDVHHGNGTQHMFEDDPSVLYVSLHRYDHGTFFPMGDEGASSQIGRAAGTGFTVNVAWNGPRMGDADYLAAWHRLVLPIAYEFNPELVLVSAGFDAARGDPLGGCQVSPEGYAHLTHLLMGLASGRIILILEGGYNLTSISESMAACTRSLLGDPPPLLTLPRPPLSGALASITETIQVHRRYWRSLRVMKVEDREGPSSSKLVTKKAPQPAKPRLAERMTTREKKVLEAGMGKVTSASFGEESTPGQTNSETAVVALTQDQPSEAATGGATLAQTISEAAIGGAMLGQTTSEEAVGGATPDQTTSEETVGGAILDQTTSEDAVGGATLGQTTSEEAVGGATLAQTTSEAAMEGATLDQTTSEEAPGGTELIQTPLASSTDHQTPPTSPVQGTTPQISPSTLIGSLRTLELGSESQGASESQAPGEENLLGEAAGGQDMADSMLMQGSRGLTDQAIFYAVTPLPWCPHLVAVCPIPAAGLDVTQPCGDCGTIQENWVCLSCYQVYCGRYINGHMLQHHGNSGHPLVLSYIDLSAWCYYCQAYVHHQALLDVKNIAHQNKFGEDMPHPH
Kind of test: HDAC6 enzyme inhibitory activity (HDAC-Glo I/II Assay kit). In kind it is biochemical. As to conditions: 10 μM; wells without enzyme = 100% inhibition; read-out: HDAC6 inhibitory rate (%) (10 μM). In a few lines: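 Luminescence read-out after 20 min reaction with HDAC-Glo substrate-developer, following 60 min room-temperature preincubation of compound with Sf-9-expressed, GST-purified full-length enzyme. Inhibition is relative to no-enzyme wells set as 100%.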
In the case of `N#Cc1cccc(-c2ccccc2N2Cc3c(F)cc(-c4nnc(C(F)F)o4)cc3C2=O)c1` [Example 376, 2′-(6-(5-(difluoro-methyl)-1,3,4-oxadiazol-2-yl)-4-fluoro-1-oxo-1,3-dihydro-2H-isoindol-2-yl)biphenyl-3-carbonitrile], the inhibition at 10 µM came to 101%. Consider `N#Cc1cccc(-c2c(F)cccc2N2Cc3ccc(-c4nnc(C(F)F)o4)cc3C2=O)c1` [Example 377, 2′-(6-(5-(difluoro-methyl)-1,3,4-oxadiazol-2-yl)-1-oxo-1,3-dihydro-2H-isoindol-2-yl)-6′-fluorobiphenyl-3-carbonitrile], for which the inhibition at 10 µM was 101%. The result for `N#Cc1cccc(-c2cc(F)ccc2N2Cc3c(F)cc(-c4nnc(C(F)F)o4)cc3C2=O)c1` [Example 378, 2′-(6-(5-(difluoro-methyl)-1,3,4-oxadiazol-2-yl)-4-fluoro-1-oxo-1,3-dihydro-2H-isoindol-2-yl)-5′-fluorobiphenyl-3-carbonitrile] reads 99%.

Turning to `O=C1c2cc(-c3nnc(C(F)F)o3)cc(F)c2CN1C[C@@H]1CCCN1C(=O)C1CC1` [Example 379, 2-(((2S)-1-(cyclopropyl-carbonyl)pyrrolidin-2-yl)methyl)-6-(5-(difluoromethyl)-1,3,4-oxadiazol-2-yl)-4-fluoro-isoindolin-1-one], the inhibition at 10 µM came out at 97%. For `O=C1c2cc(-c3nnc(C(F)F)o3)cc(F)c2CN1C[C@@H]1CCCN1S(=O)(=O)CC(F)(F)F` [Example 380, 6-(5-(difluoro-methyl)-1,3,4-oxadiazol-2-yl)-4-fluoro-2-(((2S)-1-((2,2,2-trifluoroethyl)sulfonyl)pyrrolidin-2-yl)methyl) isoindolin-1-one], the inhibition at 10 µM was 99%.

Consider `O=C1c2cc(-c3nnc(C(F)F)o3)cc(F)c2CN1c1ccc(F)cc1-c1cnn(C(F)F)c1` [Example 381, 6-(5-(difluoro-methyl)-1,3,4-oxadiazol-2-yl)-2-(2-(1-(difluoro-methyl)-1H-pyrazol-4-yl)-4-fluorophenyl)-4-fluoroisoindolin-1-one], for which the inhibition at 10 µM amounted to 100%. The result for `Cn1cc(-c2cc(F)ccc2N2Cc3c(F)cc(-c4nnc(C(F)F)o4)cc3C2=O)cn1` [Example 382, 6-(5-(difluoro-methyl)-1,3,4-oxadiazol-2-yl)-4-fluoro-2-(4-fluoro-2-(1-methyl-1H-pyrazol-4-yl)phenyl) isoindolin-1-one] reads 98%; that for `O=C1c2cc(-c3nnc(C(F)F)o3)cc(F)c2CN1c1ccc(F)cc1-c1cccc(F)c1` [Example 383, 2-(3′,5-difluoro-biphenyl-2-yl)-6-(5-(difluoro-methyl)-1,3,4-oxadiazol-2-yl)-4-fluoroiso-indolin-1-one], 95%; that for `Cn1cc(-c2cccc(F)c2)c(N2Cc3ccc(-c4nnc(C(F)F)o4)cc3C2=O)n1` [Example 384, 6-(5-(difluoro-methyl)-1,3,4-oxadiazol-2-yl)-2-(4-(3-fluoro-phenyl)-1-methyl-1H-pyrazol-3-yl) isoindolin-1-one], 99%.

Take `O=C1c2cc(-c3nnc(C(F)F)o3)ccc2CN1c1ccc(F)cc1-c1cnn(C(F)F)c1` [Example 385, 6-(5-(difluoro-methyl)-1,3,4-oxadiazol-2-yl)-2-(2-(1-(difluoro-methyl)-1H-pyrazol-4-yl)-4-fluorophenyl) isoindolin-1-one]: the inhibition at 10 µM was determined as 101%. In the case of `O=C1c2cc(-c3nnc(C(F)F)o3)ccc2CN1c1ccc(F)cc1-c1cccc(F)c1` [Example 386, 2-(3′,5-difluoro-biphenyl-2-yl)-6-(5-(difluoro-methyl)-1,3,4-oxadiazol-2-yl) isoindolin-1-one], the inhibition at 10 µM came out at 101%.

For `O=C1c2cc(-c3nnc(C(F)F)o3)ccc2CN1c1cccnc1-c1cnn(C(F)F)c1` [Example 387, 6-(5-(difluoro-methyl)-1,3,4-oxadiazol-2-yl)-2-(2-(1-(difluoro-methyl)-1H-pyrazol-4-yl)pyridin-3-yl) isoindolin-1-one], the inhibition at 10 µM was 101%.
